Assay results: publication PMC10113214 (Scientific Reports, 2023)
Entries after “also recorded” stand apart in the source; their conditions may differ.

Assays:
[1] = system: Human neutrophil elastase (EC No. 3.4.21.37, Sigma-Aldrich); assay: Human neutrophil elastase (final concentration 150 nM) in 0.1 M Tris HCl, 500 mM NaCl, 0.05% Triton X-100, 20 mM CaCl2 pH 7.5 buffer mixture; settings: 37 °C, up to 30 min.
[2] = Circular dichroism, conformation and thermal stability of β-sheet; type: physicochemical; settings: CD scans at different temperatures
Protocol: The molar ellipticity of peptides were registered on a Jasco J-815 spectrometer (JASCO, Easton, MD, USA). Solutions of peptide hybrids were prepared in water solution (10 mg/ml), incubated at 37 °C for 4 h and then diluted to a final concentration of 0.20 mg/ml. CD spectra measurements were performed at 25 °C, 30 °C, 35 °C, 40 °C, 45 °C, 50 °C, 55 °C and 60 °C, at 190–260 nm wavelength and at a scan speed of […]. The background of the solvent was subtracted. The results are presented as the relationship of mean residue molar ellipticity (MRME) [deg × cm^2 × dmol^−1] to wavelength [nm]. Measurements were performed in triplicate. In order to determine the peptides’ denaturation temperatures, the molar ellipticity rotatory angle at a fixed wavelength of 196 nm, [θ]196, was measured as a function of temperature (max 100 °C). CD temperature measurements were carried out up to a temperature of 100 °C. Above this temperature, the cure was extrapolated with GraphPad Prism 8 software using the 4PL curve fit function. The denaturation temperature was determined as the temperature at which the change in ellipticity (θ) was half complete.

| heat stability of β-sheet structure (rank) [2] | Compound | cleaved bond [1] |
| --- | --- | --- |
|  | Ac-(Arg-Ala-Asp-Ala)4-Gly-Gly-Gly-Ala-Ala-Pro-Val-Gly-Gly-Gly-His-Lys-NH2 | Val23-Gly24; also recorded: Gly25-Gly26, major |
| lowest stability of β-sheet structure | CC(=O)N[C@@H](CCCNC(=N)N)C(=O)N[C@@H](C)C(=O)N[C@@H](CC(=O)O)C(=O)N[C@@H](C)C(=O)N[C@@H](CCCNC(=N)N)C(=O)N[C@@H](C)C(=O)N[C@@H](CC(=O)O)C(=O)N[C@@H](C)C(=O)N[C@@H](CCCNC(=N)N)C(=O)N[C@@H](C)C(=O)N[C@@H](CC(=O)O)C(=O)N[C@@H](C)C(=O)N[C@@H](CCCNC(=N)N)C(=O)N[C@@H](C)C(=O)N[C@@H](CC(=O)O)C(=O)N[C@@H](C)C(N)=O [RADA16-I, Ac-(Arg-Ala-Asp-Ala)4-NH2] |  |
|  | Ac-(Arg-Ala-Asp-Ala)4-Gly-Gly-Gly-Ala-Ala-Pro-Val-Gly-Gly-Gly-Lys-Gly-His-Lys-NH2 | Val23-Gly24; also recorded: Ala21-Pro22, major; also recorded: Ala20-Ala21, major |
|  | Ac-(Arg-Ala-Asp-Ala)4-Gly-Gly-Gly-Ala-Ala-Pro-Val-Gly-Gly-Gly-Arg-Asp-Lys-Val-Tyr-Arg-NH2 | Val23-Gly24, major; also recorded: Gly24-Gly25, major |
